What was measured:
[1] = Gel formation in water: phase transition temperature (Tgel) from gel to isotropic solution; format: physicochemical; conditions: for Übergangstemperatur: 0.1 Gew.%, gel up to this temperature, liquid above
Experimental: Tabelle 1: Phasenumwandlungstemperaturen (Tgel) vom Gel zur isotropen Lösung für unterschiedliche Konzentrationen an Lipid (Abweichung ± 0.5 °C). Die Verbindung bildet ein stabiles Gel und oberhalb von Tgel eine klare Lösung. Tgel ist definiert als die Temperatur bei der das Gel sich beginnt aufzulösen. Die Temperaturspanne des Übergangs beträgt im Normalfall 2 bis 5 °C.

[2] = Foaming capacity and foam stability of aqueous solutions in 100 mL measuring cylinders; format: physicochemical; conditions: 50°C; immediate volume and 30 min. volume
Experimental: Messungen werden in 100 mL Meßzylindern durchgeführt. Vor Benutzung wird der Meßzylinder mit konzentrierter Nitriersäure gefüllt und 24 Stunden gelagert, danach mit bidestilliertem Wasser für weitere 24 Stunden. Lösungen werden durch Einwaage des Lipids und Zugabe von bidestilliertem Wasser bis zu einem Gesamtgewicht von 10 g (ca. 10 mL) hergestellt. Lösungen der jeweils niedrigeren Konzentration werden durch Verdünnung der ersten hergestellt. Vor der Messung wird der Meßzylinder bei der gewünschten Temperatur gelagert. Zur Schaumbildung wird der Meßzylinder 20 mal innerhalb von 30 Sekunden umgeschwenkt. Die Messung wird bis zu einer Abweichung von nicht mehr als 5 % wiederholt. Schaumvolumina werden direkt nach dem Schwenken des Zylinders (Schäumungsvermögen) und nach 30 Minuten (Schaumstabilität) bestimmt. '

[3] = Gel formation in water: phase transition temperature (Tgel) from gel to isotropic solution; format: physicochemical
[4] = Gel formation in dimethyl sulfoxide (DMSO) / water mixtures; format: physicochemical; parameters: key: G=Gel; Gp = Teilweise geliert; I = Isotrope Lösung; S = Fest beim Abkühlen (bedingt durch gefrorenes Lösungsmittel); conditions: 0.1 Gew.%
Experimental: Tabelle 2: Phasenumwandlungstemperaturen (Tgel) vom Gel zur isotropen Lösung für unterschiedliche Lösungsmittelzusammensetzung (Dimethylsulfoxid, DMSO und Wasser, H2O) bei gleichbleibender Lipidkonzentration (0.1 Gew.%) (Abweichung ± 0.5 °C). Die Verbindung formt klare Gele oder geliert nur teilweise, oberhalb der Übergangstemperatur bildet sie eine klare Lösung. Tgel ist definiert als die Temperatur bei der das Gel sich beginnt aufzulösen. Die Temperaturspanne des Übergangs beträgt im Normalfall 2 bis 5 °C.

[5] = Foam image and size distribution of the gas bubbles; format: physicochemical; conditions: 1 Gew.% in Wasser
Experimental: Schaumbild und Größenverteilung der Gasbläschen nach 0 min. (Abb. 2 und 3) und nach 10 min. (Abb. 4 und 5) von Lac-EG-C12 in einer Gesamtkonzentration von 1 Gew.%. in Wasser. Man erkennt, daß der Schaum zu Beginn fast ausschließlich aus Bläschen mit einer Porengröße von unter 10000 µm^2 besteht. Nach 10 min. wird die Größenverteilung etwas flacher, wobei immer noch rund ein Viertel der Bläschen eine Größe von unter 10000 µm^2 aufweist.

[6] = Foam behaviour on hair / in the hand; conditions: 1 Gew% in Wasser, with hair strands, rubbed in the hand; single component
Source text: Hier zeigte sich erstaunlicherweise das die erfindungsgemäßen Verbindungen eine vergleichbare Schaumbildung auf der Haut oder dem Haar wie z.B. Laurylethersulfat zeigen, jedoch in deutlich niedrigeren Einsatzkonzentrationen. Aus den Daten für Lac-EG-C12 (Tab. 10) war nicht unbedingt zu erwarten, dass es sich in Wasser beim Verreiben des Tensids in der Hand um einen guten Schaumbildner handelt. Auch in Gegenwart von Haaren wird beim Verreiben des Tensids eine Schaumbildung beobachtet. Dazu wurde 1 Gew% der erfindungsgemäßen Substanz in Wasser in Gegenwart von Haarsträhnen gelöst und in der Hand verrieben. Der Schaum ist wesentlich feinporiger als vergleichbare Schäume von Laurylethersulfat. […] Lac-Laureth-3.

CCCCCCCCCCCCOC(C)CO[C@@H]1O[C@H](CO)[C@@H](O[C@@H]2O[C@H](CO)[C@H](O)[C@H](O)[C@H]2O)[C@H](O)[C@H]1O (stereo partly drawn) [Lac-PG-C12, (2'-Dodecyloxypropyl) 4-0-(β-D-galactopyranosyl)-β-D-glucopyranosid]
Übergangstemperatur [1]: 41 °C

CCCCCCCCCCCCOCCO[C@@H]1O[C@H](CO)[C@@H](O[C@@H]2O[C@H](CO)[C@H](O)[C@H](O)[C@H]2O)[C@H](O)[C@H]1O [Lac-EG-C12, (2'-Dodecyloxyethyl) 4-O-(β-D-galactopyranosyl)-β-D-glucopyranosid]
Schaumbildner (comparison with SLES) [2]: wesentlich bessere Schaumbildner als Natriumlauryethersulfat (SLES) | Gelbildung ([3]; 11 Gew.% Laurylethersulfat to 4 Gew.% of the β-anomer): Gelbildung aber wieder einsetzt | Gelbildung ([3]; mixture of 13 Gew% Laurylethersulfat with 2 Gew.% of the β-anomer): kein Gel mehr bildet | Anteil an α-Anomer, ab dem die Gelbildung durch das β-Anomer aufgehoben wird ([3]; mixture of α- and β-anomer): > 80 Gew.% | Gelbildungsverhalten ([4]; H2O /DMSO 1:9, 4 °C): I | Gelbildungsverhalten ([4]; H2O /DMSO 1:9, 20 °C): I | Gelbildungsverhalten ([4]; H2O /DMSO 1:9, -27 °C): S | Gelbildungsverhalten ([4]; H2O /DMSO 2:8, 4 °C): I | Gelbildungsverhalten ([4]; H2O /DMSO 2:8, 20 °C): I | Gelbildungsverhalten ([4]; H2O /DMSO 2:8, -27 °C): S | Gelbildungsverhalten ([4]; H2O /DMSO 3:7, 4 °C): Gp | Gelbildungsverhalten ([4]; H2O /DMSO 3:7, 20 °C): I | Gelbildungsverhalten ([4]; H2O /DMSO 3:7, -27 °C): S | Gelbildungsverhalten ([4]; H2O /DMSO 4:6, 4 °C): G | Gelbildungsverhalten ([4]; H2O /DMSO 4:6, 20 °C): G | Gelbildungsverhalten ([4]; H2O /DMSO 4:6, 39 °C): Gp | Gelbildungsverhalten ([4]; H2O /DMSO 4:6, 50 °C): I | Gelbildungsverhalten ([4]; H2O /DMSO 4:6, -27 °C): S | Gelbildungsverhalten ([4]; H2O /DMSO 5:5, 4 °C): G | Gelbildungsverhalten ([4]; H2O /DMSO 5:5, 20 °C): G | Gelbildungsverhalten ([4]; H2O /DMSO 5:5, 39 °C): G | Gelbildungsverhalten ([4]; H2O /DMSO 5:5, 50 °C): I | Gelbildungsverhalten ([4]; H2O /DMSO 5:5, -27 °C): G | Gelbildungsverhalten ([4]; H2O /DMSO 6:4, 4 °C): G | Gelbildungsverhalten ([4]; H2O /DMSO 6:4, 20 °C): G | Gelbildungsverhalten ([4]; H2O /DMSO 6:4, 39 °C): G | Gelbildungsverhalten ([4]; H2O /DMSO 6:4, 50 °C): I | Gelbildungsverhalten ([4]; H2O /DMSO 6:4, -27 °C): S | Gelbildungsverhalten ([4]; H2O /DMSO 7:3, 4 °C): G | Gelbildungsverhalten ([4]; H2O /DMSO 7:3, 20 °C): G | Gelbildungsverhalten ([4]; H2O /DMSO 7:3, 39 °C): G | Gelbildungsverhalten ([4]; H2O /DMSO 7:3, 50 °C): I | Gelbildungsverhalten ([4]; H2O /DMSO 7:3, -27 °C): S | Gelbildungsverhalten ([4]; H2O /DMSO 8:2, 4 °C): G | Gelbildungsverhalten ([4]; H2O /DMSO 8:2, 20 °C): G | Gelbildungsverhalten ([4]; H2O /DMSO 8:2, 39 °C): G | Gelbildungsverhalten ([4]; H2O /DMSO 8:2, 50 °C): I | Gelbildungsverhalten ([4]; H2O /DMSO 8:2, -27 °C): S | Gelbildungsverhalten ([4]; H2O /DMSO 9:1, 4 °C): G | Gelbildungsverhalten ([4]; H2O /DMSO 9:1, 20 °C): G | Gelbildungsverhalten ([4]; H2O /DMSO 9:1, 39 °C): G | Gelbildungsverhalten ([4]; H2O /DMSO 9:1, 50 °C): I | Gelbildungsverhalten ([4]; H2O /DMSO 9:1, -27 °C): S | Porengröße der Bläschen ([5]; 0 min., almost all bubbles): < 10000 µm^2 | Anteil der Bläschen mit einer Größe von unter 10000 µm^2 ([5]; nach 10 min.): ein Viertel | Tgel ([1]; 0.03 Gew.% (0.60 mM) in water): 10 °C | Tgel ([1]; 0.04 Gew.% (0.72 mM) in water): 21 °C | Tgel ([1]; 0.05 Gew.% (0.90 mM) in water): 30 °C | Tgel ([1]; 0.06 Gew.% (1.03 mM) in water): 35 °C | Tgel ([1]; 0.07 Gew.% (1.20 mM) in water): 38 °C | Tgel ([1]; 0.08 Gew.% (1.44 mM) in water): 40 °C | Tgel ([1]; 0.1 Gew.% (1.80 mM) in water): 43 °C | Übergangstemperatur [1]: 43 °C | Tgel ([1]; 0.13 Gew.% (2.41 mM) in water): 45 °C | Tgel ([1]; 0.2 Gew.% (3.61 mM) in water): 46 °C | Tgel ([1]; 0.5 Gew.% (9.02 mM) in water): 48 °C | Tgel ([1]; 1 Gew.% (18.04 mM) in water): 50 °C | Tgel ([1]; 5 Gew.% (90.20 mM) in water): 51 °C | Tgel ([1]; 10 Gew.% (180.40 mM) in water): 51 °C | Schaumbildung auf Haar / in der Hand [6]: bester Schaumbildner

CCCCCCCCCCCCOCCO[C@@H]1O[C@H](CO[C@H]2O[C@H](CO)[C@H](O)[C@H](O)[C@H]2O)[C@@H](O)[C@H](O)[C@H]1O [Mel-EG-C12, (2'-Dodecyloxyethyl) 6-O-(α-D-galactopyranosyl)-β-D-glucopyranosid]
Schaumbildner (comparison with SLES) [2]: wesentlich bessere Schaumbildner als Natriumlauryethersulfat (SLES)

CCCCCCCCCCCCOCCO[C@H]1O[C@H](CO)[C@@H](O[C@@H]2O[C@H](CO)[C@H](O)[C@H](O)[C@H]2O)[C@H](O)[C@H]1O [Lac-α-EG-C12, (2'-Dodecyloxyethyl) 4-O-(β-D-galactopyranosyl)-α-D-glucopyranosid]
Gelbildung ([1]; in water): kein Gel bildet

CCCCCCCCCCCCOCCO[C@@H]1O[C@H](CO)[C@@H](O[C@H]2O[C@H](CO)[C@@H](O)[C@H](O)[C@H]2O)[C@H](O)[C@H]1O [Mal-EG-C12, (2'-Dodecyloxyethyl) 4-O-(α-D-glucopyranosyl)-β-D-glucopyranosid]
Schaumbildner (comparison with SLES) [2]: wesentlich bessere Schaumbildner als Natriumlauryethersulfat (SLES)

Source: patent EP1980567A1, “New disaccharide-based tensides and emulsifiers” (Beiersdorf AG, priority 2005, dated 2006)
